Marks after values point to notes of the source that are not given here.
Tested on: healthy human subjects
Test: Blood glucose response in healthy human subjects
Type: in vivo
Settings: 10 healthy human subjects
Method: Samples containing 25 g (dsb) of the syrup were prepared as follows. 2.838 kg of filtered water was added to a jug containing a pre-weighed quantity of RCS. The lid was placed on the jug, and it was then mixed thoroughly by shaking and swirling until all syrup was dissolved. 12 oz. (350 g) of this solution contained 25 g of the test carbohydrate on a dry solids basis.
The control solution was prepared by mixing 25 g anhydrous glucose with 300 mL of water.
The samples were administered to 10 healthy human subjects. The characteristics of the subjects were: 5 male, 5 female; age, 35±10 y; body mass index, 24.0±3.8 kg/m^2. Each subject undertook nine tests on separate days which included the six test foods and on three occasions the standard glucose drink containing 25 g of available carbohydrate. Blood glucose was measured fasting and at 15, 30, 45, 60, 90 and 120 minutes after eating. Incremental areas under the blood glucose response curves (iAUC) were calculated. Each subject's iAUC after consumption of each test food was expressed as a percentage of the mean iAUC of the three glucose controls taken by the same subject. The incremental areas under the curve and relative glycemic response (RGR) of the products were: […]

## OC[C@H]1OC(O)[C@H](O)[C@@H](O)[C@@H]1O (some centres unmarked) [Glucose, anhydrous glucose]
25 g (dsb), blood glucose fasting to 120 minutes
  iAUC (incremental area under the blood glucose response curve): 124.4 ± 13.5^a
iAUC as percentage of mean iAUC of the three glucose controls of the same subject
  RGR (relative glycemic response): 100^a

Reference: US9963726B2, “Fiber-containing carbohydrate composition” (Tate & Lyle Ingredients Americas LLC, priority 2006, dated 2018)
